# Values of other authors, collected in patent US20100234388A1, “SUBSTITUTED PDE5 INHIBITORS” (AUSPEX PHARMACEUTICALS, INC., priority 2006, published 2010).
# Experiments:
# [1] = human, in vivo
# [2] = human, in vivo; remark: listed apart in the source
# PDE5 versus PDE6 = details: compared with sildenafil and vardenafil
smiles,measurement,setting,value
"CN1CC(=O)N2[C@H](c3ccc4c(c3)OCO4)c3[nH]c4ccccc4c3C[C@@H]2C1=O [tadalafil, Tadalafil]","patients with side effects of chromatopsia, increased sensitivity to light, and blurred vision",[1],less than 0.1%
same,exercise tolerance,[2],improve exercise tolerance
same,selectivity for PDE5 versus PDE6,PDE5 versus PDE6,much more selective
